The structures appear in SMILES notation.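 Following 48 hours of exposure in 96-well plates, responses at five concentrations were used to interpolate endpoints linearly. GI50: concentration for 50% inhibition of growth. Definition used: TGI = concentration required for complete inhibition of growth.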

Test systems include A498 renal; CCRF-CEM leukemia; IGROV1 ovarian; RXF 393 renal; SK-OV-3 ovarian; SNB-19 CNS; SW-620 colon; T-47D breast; DMS 114 small cell lung; HOP-18 NSCLC.
Holding throughout (experiment): NCI tumour cell line growth inhibition, 48 h

With `CC(=O)OC1CC(O)C23COC(O)C1(C)C2CC(O)C1(C)C3C(=O)C(O)C2(C)C(c3ccoc3)CC3OC321` (configuration not stated), the GI50 is over 100 µM in the assay with A498 renal; under 0.0162 µM in the assay on CCRF-CEM leukemia; 0.377 µM in the assay on IGROV1 ovarian; over 100 µM with RXF 393 renal; over 100 µM in the assay on SK-OV-3 ovarian; over 100 µM in the assay on SNB-19 CNS. Also, the results for the GI50 with SW-620 colon and in the assay with T-47D breast were 0.0323 µM and 0.151 µM, respectively. Further, the TGI in the assay with A498 renal, with CCRF-CEM leukemia, in the assay with IGROV1 ovarian, in the assay with RXF 393 renal, in the assay on SK-OV-3 ovarian and with SNB-19 CNS was over 100 µM each time. For the same compound, the TGI in the assay with SW-620 colon and with T-47D breast was over 100 µM throughout.

Regarding `CC(C)=CCC/C(=C/CC/C(C)=C/CCc1ccoc1)C(=O)O`, the TGI with A498 renal, with CCRF-CEM leukemia, in the assay with DMS 114 small cell lung, in the assay on RXF 393 renal, in the assay with SK-OV-3 ovarian and with SNB-19 CNS was over 100 µM in each case. This compound came in with a TGI in the assay with SW-620 colon of over 100 µM.

Turning to `CC(C)c1ccc(C(=O)Nc2sc3c(c2C(N)=O)CCC(=O)C3)cc1`, the GI50 with A498 renal was 2.33 µM; with CCRF-CEM leukemia, 0.215 µM; with IGROV1 ovarian, 0.491 µM; in the assay on RXF 393 renal, 0.354 µM; in the assay with SK-OV-3 ovarian it was 2.62 µM; in the assay on SNB-19 CNS it was 0.472 µM. The GI50 in the assay on SW-620 colon is 0.256 µM; with T-47D breast, 0.312 µM. Also, the TGI with A498 renal worked out at 8.52 µM; with CCRF-CEM leukemia it was 4.27 µM; in the assay with IGROV1 ovarian, 2.14 µM; in the assay with RXF 393 renal, 1.49 µM; in the assay on SK-OV-3 ovarian, 8.02 µM; with SNB-19 CNS, 6.02 µM. The TGI in the assay on SW-620 colon stood at 1.6 µM; in the assay with T-47D breast it was 2.1 µM.

In the case of `COc1c2c(cc3nc4ccccc4nc13)CCC(C(C)(C)O)C2` (configuration not stated), the TGI in the assay on A498 renal, in the assay on CCRF-CEM leukemia, in the assay on HOP-18 NSCLC, in the assay on IGROV1 ovarian, in the assay on RXF 393 renal and with SK-OV-3 ovarian was over 100 µM throughout. Also, the TGI in the assay with SNB-19 CNS and in the assay with SW-620 colon was over 100 µM each time.

For the compound `Fc1cc(F)c(COc2cc(Cn3cnc4c(Cl)nc(Cl)nc43)ccc2C23CC4CC(CC(C4)C2)C3)cc1F`, the GI50 in the assay on A498 renal is 99.2 µM; with CCRF-CEM leukemia, 1.91 µM; in the assay with IGROV1 ovarian it was 13.2 µM; in the assay with RXF 393 renal it was 15.3 µM; in the assay with SK-OV-3 ovarian it was 22 µM; in the assay with SNB-19 CNS, 17.5 µM. The values for the GI50 in the assay on SW-620 colon and in the assay with T-47D breast were 12.3 µM and 16.7 µM, respectively. Besides, the TGI in the assay with A498 renal is over 100 µM; in the assay with CCRF-CEM leukemia it was 4.52 µM; with IGROV1 ovarian, 27.5 µM; in the assay on RXF 393 renal it was 29.7 µM; with SK-OV-3 ovarian, 43.3 µM; in the assay with SNB-19 CNS, 31.7 µM. For the same compound, the TGI in the assay on SW-620 colon was determined as 29.3 µM; in the assay on T-47D breast, 45.1 µM.

Regarding `CCN(CC)c1sc(N(CC)CC)c2c1SSSSS2`, the GI50 in the assay on A498 renal was 2.03 µM; with CCRF-CEM leukemia, 0.359 µM; with IGROV1 ovarian it was 0.715 µM; with RXF 393 renal, 1.59 µM; in the assay on SK-OV-3 ovarian, 3.13 µM; in the assay on SNB-19 CNS, 2.64 µM. Moreover, the GI50 is 0.132 µM in the assay on SW-620 colon and 3.17 µM in the assay on T-47D breast. Also, the TGI with A498 renal was 3.54 µM; in the assay on CCRF-CEM leukemia, 1.24 µM; in the assay with IGROV1 ovarian, 2.77 µM; in the assay on SK-OV-3 ovarian, 6.98 µM; in the assay on SNB-19 CNS, 12.7 µM; in the assay with SW-620 colon it was 1.14 µM. Also, the TGI with T-47D breast is over 100 µM.

Consider `CN(C)CCCn1c2c(c3ccccc3c1=O)C(=O)c1ccccc1-2`, for which the GI50 is 5.99 µM with A498 renal; 1.44 µM in the assay with CCRF-CEM leukemia; 2.29 µM in the assay on IGROV1 ovarian; 5.38 µM with RXF 393 renal; 4.14 µM with SK-OV-3 ovarian; 2.2 µM in the assay on SNB-19 CNS. The GI50 in the assay on SW-620 colon was 0.771 µM; in the assay on T-47D breast, 3.01 µM. The TGI in the assay with A498 renal is 22.1 µM; with CCRF-CEM leukemia it was 28.9 µM; with IGROV1 ovarian it was over 100 µM; in the assay on RXF 393 renal, 49.3 µM; in the assay with SK-OV-3 ovarian it was 73.8 µM; in the assay on SNB-19 CNS, 21.9 µM. The TGI with SW-620 colon was found to be 10.8 µM; in the assay on T-47D breast it was 14.8 µM.

In the case of `CCN(CC)c1ccc(C(=N)c2ccc(N(CC)CC)cc2)cc1`, the GI50 was 0.575 µM in the assay with A498 renal; 0.741 µM in the assay on CCRF-CEM leukemia; 0.565 µM in the assay on IGROV1 ovarian; 0.731 µM with RXF 393 renal; 0.854 µM with SK-OV-3 ovarian; 0.917 µM in the assay on SNB-19 CNS. In addition, the GI50 with SW-620 colon is 0.346 µM; in the assay with T-47D breast, 0.311 µM. Also, the TGI with A498 renal was 2.38 µM; with CCRF-CEM leukemia it was 9.3 µM; in the assay with IGROV1 ovarian it was 4.43 µM; in the assay with RXF 393 renal, 2.45 µM; in the assay with SK-OV-3 ovarian, 2.89 µM; in the assay with SNB-19 CNS it was 8.09 µM. For the same compound, the TGI with SW-620 colon was determined as 1.5 µM; in the assay with T-47D breast, 1.73 µM.

In the case of `NCCCC[C@@H]1NC(=O)[C@H]2CCCN2C(=O)[C@H](Cc2ccccc2)NC(=O)[C@H](Cc2ccccc2)CNC1=O`, the GI50 in the assay on A498 renal, in the assay on CCRF-CEM leukemia, in the assay on IGROV1 ovarian, in the assay with RXF 393 renal, in the assay on SK-OV-3 ovarian and with SNB-19 CNS was over 100 µM in each case. Besides, the GI50 in the assay with SW-620 colon and with T-47D breast was over 100 µM throughout. The TGI in the assay on A498 renal, with CCRF-CEM leukemia, in the assay on IGROV1 ovarian, with RXF 393 renal, in the assay with SK-OV-3 ovarian and in the assay on SNB-19 CNS was over 100 µM throughout. Besides, the TGI in the assay on SW-620 colon and with T-47D breast was over 100 µM in each case.

Take `CCS(=O)(=O)c1ccc(OC)c(Nc2ncc(-c3cccc(C(C)=O)c3)o2)c1`: the GI50 is 0.6 µM in the assay with A498 renal; over 25 µM in the assay with CCRF-CEM leukemia; 5.47 µM in the assay on IGROV1 ovarian; 3.21 µM in the assay on RXF 393 renal; 21.5 µM in the assay with SK-OV-3 ovarian; 19.9 µM in the assay with SNB-19 CNS. Also, the values for the GI50 with SW-620 colon and in the assay on T-47D breast were over 25 µM and 16.7 µM, respectively. For the same compound, the TGI in the assay on A498 renal is 5.88 µM; in the assay on CCRF-CEM leukemia, over 25 µM; in the assay on IGROV1 ovarian it was 16.1 µM; in the assay on RXF 393 renal, 16.6 µM; in the assay on SK-OV-3 ovarian, over 25 µM; with SNB-19 CNS it was over 25 µM. Also, the TGI in the assay on SW-620 colon and in the assay on T-47D breast was over 25 µM each time.

Values taken from PubChem BioAssay (NCI).
